Source: ChEMBL document CHEMBL6121062, “Discovery, Optimization, and Preclinical Pharmacology of EP652, a METTL3 Inhibitor with Efficacy in Liquid and Solid Tumor Models” (J Med Chem, 2025)

Tests used:
METTL3/METTL14 [1] = molecular target: T1, METTL3/METTL14 (Homo sapiens, UniProt Q86U44); experiment: Displacement of [3H]-SAM from METTL3/METTL14 (unknown origin) using 5'biotinylated-UACACUCGAUCUGGACUAAAGGUGCUC-3' RNA as substrate preincubated for 10 mins followed by substrate/[3H]-SAM addition measured after 90 mins by SPA; format: protein-complex assay
Kasumi 1 = experiment: Antiproliferative activity against human Kasumi 1 cells assessed as inhibition of cell viability incubated for 72 hrs by ATPlite assay; format: functional, cell-based; details: Kasumi 1, 72 h
[2] = Lipophilicity, logD of compound in 1-octanol/PBS at pH 7.4 incubated for 24 hrs by HPLC analysis; format: physicochemical
[3] = Unbound fraction in Sprague-Dawley rat plasma at 1 mg/kg/day, iv measured for 24 hrs by LC-MS/MS analysis; format: ADME, organism-based; details: in vivo
[4] = Unbound clearance in Sprague-Dawley rat at 1 mg/kg/day, iv measured for 24 hrs by LC-MS/MS analysis; format: ADME, organism-based; details: in vivo
[5] = Unbound AUC in Sprague-Dawley rat at 1 mg/kg/day, iv measured for 24 hrs by LC-MS/MS analysis; format: ADME, organism-based; details: in vivo
METTL3/METTL14 [6] = molecular target: T1, METTL3/METTL14; experiment: Inhibition of METTL3/METTL14-mediated m6A mRNA expression in human Calu-6 cells incubated for 24 hrs by LC-MS/MS analysis; format: cell-based
MV4-11 = experiment: Antiproliferative activity against human MV4-11 cells assessed as inhibition of cell viability incubated for 72 hrs by ATPlite assay; format: functional, cell-based; details: MV4-11, 72 h
Caov-3 cell line = experiment: Antiproliferative activity against human Caov-3 cells assessed as inhibition of cell viability incubated for 72 hrs by ATPlite assay; format: functional, cell-based; details: Caov-3, 72 h
Calu-6 = experiment: Antiproliferative activity against human Calu-6 cells assessed as inhibition of cell viability incubated for 72 hrs by ATPlite assay; format: functional, cell-based; details: Calu-6, 72 h
A549 = experiment: Antiproliferative activity against human A549 cells assessed as inhibition of cell viability incubated for 72 hrs by ATPlite assay; format: functional, cell-based; details: A549, 72 h
FaDu = experiment: Antiproliferative activity against human FaDu cells assessed as inhibition of cell viability incubated for 72 hrs by ATPlite assay; format: functional, cell-based
SK-OV-3 = experiment: Antiproliferative activity against human SK-OV-3 cells assessed as inhibition of cell viability incubated for 72 hrs by ATPlite assay; format: functional, cell-based; details: SK-OV-3, 72 h
NCI-H1650 = experiment: Growth inhibition of human NCI-H1650 cells spheroid model; format: functional, cell-based
METTL3/METTL14 [7] = molecular target: T1, METTL3/METTL14; experiment: Inhibition of METTL3/METTL14-mediated m6A mRNA expression in human Kasumi 1 cells incubated for 24 hrs by LC-MS/MS analysis; format: cell-based
METTL3/METTL14 [8] = molecular target: T1, METTL3/METTL14; experiment: Inhibition of METTL3/METTL14-mediated m6A mRNA expression in human MV4-11 cells incubated for 24 hrs by LC-MS/MS analysis; format: cell-based
METTL3/METTL14 [9] = molecular target: T1, METTL3/METTL14; experiment: Inhibition of METTL3/METTL14-mediated m6A mRNA expression in human A549 cells incubated for 24 hrs by LC-MS/MS analysis; format: cell-based
METTL3/METTL14 [10] = molecular target: T1, METTL3/METTL14; experiment: Inhibition of METTL3/METTL14-mediated m6A mRNA expression in human FaDu cells incubated for 24 hrs by LC-MS/MS analysis; format: cell-based
METTL3/METTL14 [11] = molecular target: T1, METTL3/METTL14; experiment: Inhibition of METTL3/METTL14-mediated m6A mRNA expression in human SK-OV-3 cells incubated for 24 hrs by LC-MS/MS analysis; format: cell-based
[12] = Unbound AUC in mouse at 30 mg/kg, ip; format: ADME, organism-based; details: in vivo
[13] = In vivo inhibition of METTL3/METTL14-mediated m6A mRNA expression in PBMC of rat at 3 to 30 mg/kg relative to control; format: functional; details: dose 3-30 mg/kg
Rattus norvegicus = experiment: In vivo inhibition of METTL3/METTL14-mediated m6A mRNA expression in PBMC of rat; format: functional, organism-based; details: dose 3-30 mg/kg
Cytochrome P450 3A4 = Cytochrome P450 3A4 (Homo sapiens, UniProt P08684); experiment: Inhibition of CYP3A4 (unknown origin); format: ADME
[14] = Half life in rat liver microsomes; format: ADME, Microsome

T1 sequence (Q86U44 whole entry): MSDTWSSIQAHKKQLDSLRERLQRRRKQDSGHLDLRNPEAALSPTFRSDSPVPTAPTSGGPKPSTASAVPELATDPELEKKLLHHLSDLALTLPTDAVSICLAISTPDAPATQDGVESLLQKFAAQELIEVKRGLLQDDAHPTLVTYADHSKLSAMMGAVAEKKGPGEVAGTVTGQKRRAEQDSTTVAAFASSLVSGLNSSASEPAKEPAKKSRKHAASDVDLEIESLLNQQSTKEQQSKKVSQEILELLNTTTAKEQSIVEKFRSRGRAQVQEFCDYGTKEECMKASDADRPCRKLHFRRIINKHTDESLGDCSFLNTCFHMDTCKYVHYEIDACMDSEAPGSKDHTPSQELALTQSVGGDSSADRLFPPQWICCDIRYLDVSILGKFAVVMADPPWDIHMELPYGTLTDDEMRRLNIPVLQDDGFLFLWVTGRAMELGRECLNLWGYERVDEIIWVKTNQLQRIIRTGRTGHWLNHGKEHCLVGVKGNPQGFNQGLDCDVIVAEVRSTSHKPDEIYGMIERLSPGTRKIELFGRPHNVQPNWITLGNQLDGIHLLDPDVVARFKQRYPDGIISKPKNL
T1 sequence (Q9HCE5 whole entry, further chain): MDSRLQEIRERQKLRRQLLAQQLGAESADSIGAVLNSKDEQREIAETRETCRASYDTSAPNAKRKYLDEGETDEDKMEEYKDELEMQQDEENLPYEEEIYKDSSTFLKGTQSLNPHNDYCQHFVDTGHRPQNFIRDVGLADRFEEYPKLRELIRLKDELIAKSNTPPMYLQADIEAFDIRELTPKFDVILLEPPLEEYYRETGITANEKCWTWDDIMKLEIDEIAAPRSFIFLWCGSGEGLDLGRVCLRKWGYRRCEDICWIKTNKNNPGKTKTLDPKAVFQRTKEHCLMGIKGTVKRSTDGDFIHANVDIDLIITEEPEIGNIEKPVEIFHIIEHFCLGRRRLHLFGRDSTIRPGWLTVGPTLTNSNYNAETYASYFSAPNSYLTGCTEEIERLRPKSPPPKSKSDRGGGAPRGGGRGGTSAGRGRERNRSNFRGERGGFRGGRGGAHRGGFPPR
Cytochrome P450 3A4, sequence (P08684 whole entry): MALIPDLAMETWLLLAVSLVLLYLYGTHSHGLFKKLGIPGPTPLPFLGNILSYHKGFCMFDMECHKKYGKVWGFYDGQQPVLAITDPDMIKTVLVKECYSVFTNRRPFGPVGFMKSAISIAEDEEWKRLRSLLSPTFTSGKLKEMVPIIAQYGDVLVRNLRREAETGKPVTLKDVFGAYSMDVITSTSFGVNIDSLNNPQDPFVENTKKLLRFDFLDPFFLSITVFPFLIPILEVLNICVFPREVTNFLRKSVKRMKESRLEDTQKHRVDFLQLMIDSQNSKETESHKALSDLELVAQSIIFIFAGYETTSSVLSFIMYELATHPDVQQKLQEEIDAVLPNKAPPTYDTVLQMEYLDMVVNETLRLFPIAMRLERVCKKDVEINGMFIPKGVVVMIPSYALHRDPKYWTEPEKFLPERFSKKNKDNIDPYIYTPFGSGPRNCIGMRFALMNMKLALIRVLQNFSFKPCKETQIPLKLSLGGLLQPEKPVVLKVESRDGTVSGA

Compound | IC50 (METTL3/METTL14 [1]) [nM] | logD at 24 h [2] | Fu [3] [%] | CL free [4] [mL/min/kg] | fAUC [5] [µM·min] | IC50 (Kasumi 1) [nM] | further results
COc1cncc(-c2cn(Cn3ccc(N4CCC[C@@H](NCC5CCC5)C4)cc3=O)nn2)c1 | 3 | 1.51 | 9.3 | 854 | 2.7 | 1100 | –
COc1cncc(-c2cn(C(C)c3ccc(N4CCC[C@@H](NCC5CCC5)C4)cn3)nn2)c1 (some centres not stated) | 4 | 1.65 | 14.1 | 263 | 10.9 | 2100 | –
O=C(NCc1ccc2cc(CNCC3CCC3)[nH]c2c1)c1cc(=O)n2ccccc2n1 | 4 | 1.9 | – | – | 4.6 | 1160 | IC50 (METTL3/METTL14 [6]): 169 nM; IC50 (MV4-11): 7630 nM; IC50 (Caov-3 cell line): 563 nM; IC50 (Calu-6): 1140 nM; IC50 (A549): > 5000 nM; IC50 (FaDu): 2210 nM; IC50 (SK-OV-3): 371 nM; IC50 (NCI-H1650): 2060 nM; IC50 (METTL3/METTL14 [7]): 138 nM; IC50 (METTL3/METTL14 [8]): 182 nM; IC50 (METTL3/METTL14 [9]): 264 nM; IC50 (METTL3/METTL14 [10]): 331 nM; IC50 (METTL3/METTL14 [11]): 134 nM; fAUC [12]: 298.1 µM·min; inhibition (INH) [13]: <=61%; inhibition (Rattus norvegicus): Dose-dependent-effect
COc1cncc(-c2cn(C(C)(C)c3ccc(N4CCC[C@@H](NCC5CCC5)C4)nn3)nn2)c1 | 6 | 1.69 | 15.3 | 421 | 4.9 | 2070 | –
CCC(c1ccc(N2CCC[C@@H](NCC3CCC3)C2)nn1)n1cc(-c2cncc(OC)c2)nn1 (some centres not stated) | 31 | 1.9 | 11.2 | – | – | 6000 | –
COc1cncc(-c2cn(C(C)c3ccc(N4CCC[C@@H](NCC5CCC5)C4)nn3)nn2)c1 (some centres not stated) | 4 | 1.62 | 14 | 423 | 5.3 | 904 | –
COc1cncc(-c2cn(Cc3ccc(N4CCC[C@@H](NCC5CCC5)C4)nn3)nn2)c1 | 6 | 1.47 | 11.1 | 596 | 5.7 | 1930 | –
COc1cncc(-c2cn(C(C)n3ccc(N4CCC[C@@H](NCC5CCC5)C4)cc3=O)nn2)n1 (some centres not stated) | 3 | 1.65 | – | 413 | 6.1 | 656 | –
CCOc1cncc(-c2cn(C(C)n3ccc(N4CCC[C@@H](NCC5CCC5)C4)cc3=O)nn2)c1 (some centres not stated) | 2 | 2.07 | – | 1112 | 2.1 | 302 | –
COc1cncc(-c2cn(Cc3ccc(N4CCC[C@@H](NCC5CCC5)C4)cn3)nn2)c1 | 4 | 1.21 | 8.9 | 934 | 2.4 | 894 | –

The remaining molecules from weak to strong by IC50 (METTL3/METTL14 [1]), led by results:

IC50 (METTL3/METTL14 [1]) [nM] | logD at 24 h [2] | Fu [3] [%] | CL free [4] [mL/min/kg] | fAUC [5] [µM·min] | Compound | IC50 (Kasumi 1) [nM] | further results
2 | 1.5 | 17.4 | 645 | 3.8 | COc1cncc(-c2cn([C@H](C)n3ccc(N4CCC[C@@H](NCC5CCC5)C4)cc3=O)nn2)c1 | 489 | –
2 | 1.8 | – | 529 | 3.3 | CC(n1cc(-c2cncc(-n3cccn3)c2)nn1)n1ccc(N2CCC[C@@H](NCC3CCC3)C2)cc1=O (some centres not stated) | 301 | –
2 | 2.13 | – | 2269 | 0.9 | COc1cc(-c2cn(C(C)n3ccc(N4CCC[C@@H](NCC5CCC5)C4)cc3=O)nn2)c2cn[nH]c2c1 (some centres not stated) | 437 | –
2 | 1.89 | – | – | – | COc1cc(-c2cn(Cc3ccc(N4CCC[C@@H](NCC5CCC5)C4)nn3)nn2)c2cn[nH]c2c1 | 629 | IC50 (METTL3/METTL14 [6]): 100 nM; IC50 (Cytochrome P450 3A4): ~800 nM; half-life [14]: 16 min
1 | 1.17 | – | 369 | 5.2 | CC(n1cc(-c2cncc(N(C)C)n2)nn1)n1ccc(N2CCC[C@@H](NCC3CC3)C2)cc1=O (some centres not stated) | 96 | –
1 | 1.6 | – | 443 | 4.7 | C[C@@H](n1cc(-c2cncc(N3CCCC3)n2)nn1)n1ccc(N2CCC[C@@H](NCC3CC3)C2)cc1=O | 13 | –
1 | 1.69 | – | 449 | 4.7 | CC(n1cc(-c2cncc(N(C)C)n2)nn1)n1ccc(N2CCC[C@@H](NCC3CCC3)C2)cc1=O (some centres not stated) | 35 | –
